One assay concerns the target T1, PI3Kβ (Homo sapiens, UniProt P42338).
T1 construct: purchased DiscoveRx Corporation, San Diego (contract service, KINOMEscan)
Briefly: Enzyme binding assay (KINOMEscan, DiscoveRx). Conditions: PIK3Cβ_h, read-out: Kd PIK3Cβ_h. In a few lines:
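KINOMEscan binding platform; read-out is the inhibitor binding constant Kd (nM).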

The target in another assay is T2, PI3Kδ (Homo sapiens, UniProt O00329).
T2 construct: purchased DiscoveRx Corporation, San Diego (contract service, KINOMEscan)
T2 sequence (O00329 1-1044): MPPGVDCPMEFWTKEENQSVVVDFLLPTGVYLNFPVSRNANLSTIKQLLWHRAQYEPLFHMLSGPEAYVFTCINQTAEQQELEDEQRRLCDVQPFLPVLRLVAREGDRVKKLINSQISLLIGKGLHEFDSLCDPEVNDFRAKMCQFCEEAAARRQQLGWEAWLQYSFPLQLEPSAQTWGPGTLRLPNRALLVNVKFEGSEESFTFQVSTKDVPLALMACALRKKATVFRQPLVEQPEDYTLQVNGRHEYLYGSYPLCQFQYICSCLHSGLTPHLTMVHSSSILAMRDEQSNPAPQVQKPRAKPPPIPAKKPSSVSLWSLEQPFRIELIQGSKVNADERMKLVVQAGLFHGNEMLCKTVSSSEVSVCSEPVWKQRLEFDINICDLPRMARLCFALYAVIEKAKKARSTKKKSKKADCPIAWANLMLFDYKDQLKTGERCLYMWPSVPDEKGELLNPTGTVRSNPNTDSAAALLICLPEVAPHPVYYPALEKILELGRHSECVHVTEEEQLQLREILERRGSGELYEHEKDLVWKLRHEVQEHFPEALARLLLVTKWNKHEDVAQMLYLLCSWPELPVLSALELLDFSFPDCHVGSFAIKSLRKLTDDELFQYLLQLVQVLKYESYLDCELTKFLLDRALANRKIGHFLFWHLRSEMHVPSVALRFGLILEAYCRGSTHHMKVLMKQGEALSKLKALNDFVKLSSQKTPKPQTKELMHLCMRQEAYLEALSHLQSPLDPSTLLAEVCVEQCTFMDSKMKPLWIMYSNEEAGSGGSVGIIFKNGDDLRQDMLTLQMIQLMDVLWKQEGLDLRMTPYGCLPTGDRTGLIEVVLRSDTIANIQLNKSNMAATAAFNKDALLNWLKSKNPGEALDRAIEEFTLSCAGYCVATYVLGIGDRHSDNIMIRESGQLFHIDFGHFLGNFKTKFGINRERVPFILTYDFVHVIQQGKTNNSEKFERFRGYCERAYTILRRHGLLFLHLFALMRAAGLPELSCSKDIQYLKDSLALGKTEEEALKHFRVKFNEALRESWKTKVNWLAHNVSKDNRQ
The assay is described as follows: Enzyme binding assay (KINOMEscan, DiscoveRx). Conditions: PIK3Cδ_h. The essentials:
(§1)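 KINOMEscan readout; values are kinase binding affinities.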

Assay [1] addresses T3, kinase enzymes (Homo sapiens, UniProt P42345).
T3 construct: purchased DiscoveRx Corporation, San Diego (contract service, KINOMEscan)
Briefly: Enzyme binding assay (KINOMEscan, DiscoveRx), further kinases of Table A. Conditions: MTOR_h. The essentials: as §1

Assay [2] deals with T4, kinase enzymes (Homo sapiens, UniProt P48736).
T4 construct: purchased DiscoveRx Corporation, San Diego (contract service, KINOMEscan)
T4 sequence (P48736 whole entry): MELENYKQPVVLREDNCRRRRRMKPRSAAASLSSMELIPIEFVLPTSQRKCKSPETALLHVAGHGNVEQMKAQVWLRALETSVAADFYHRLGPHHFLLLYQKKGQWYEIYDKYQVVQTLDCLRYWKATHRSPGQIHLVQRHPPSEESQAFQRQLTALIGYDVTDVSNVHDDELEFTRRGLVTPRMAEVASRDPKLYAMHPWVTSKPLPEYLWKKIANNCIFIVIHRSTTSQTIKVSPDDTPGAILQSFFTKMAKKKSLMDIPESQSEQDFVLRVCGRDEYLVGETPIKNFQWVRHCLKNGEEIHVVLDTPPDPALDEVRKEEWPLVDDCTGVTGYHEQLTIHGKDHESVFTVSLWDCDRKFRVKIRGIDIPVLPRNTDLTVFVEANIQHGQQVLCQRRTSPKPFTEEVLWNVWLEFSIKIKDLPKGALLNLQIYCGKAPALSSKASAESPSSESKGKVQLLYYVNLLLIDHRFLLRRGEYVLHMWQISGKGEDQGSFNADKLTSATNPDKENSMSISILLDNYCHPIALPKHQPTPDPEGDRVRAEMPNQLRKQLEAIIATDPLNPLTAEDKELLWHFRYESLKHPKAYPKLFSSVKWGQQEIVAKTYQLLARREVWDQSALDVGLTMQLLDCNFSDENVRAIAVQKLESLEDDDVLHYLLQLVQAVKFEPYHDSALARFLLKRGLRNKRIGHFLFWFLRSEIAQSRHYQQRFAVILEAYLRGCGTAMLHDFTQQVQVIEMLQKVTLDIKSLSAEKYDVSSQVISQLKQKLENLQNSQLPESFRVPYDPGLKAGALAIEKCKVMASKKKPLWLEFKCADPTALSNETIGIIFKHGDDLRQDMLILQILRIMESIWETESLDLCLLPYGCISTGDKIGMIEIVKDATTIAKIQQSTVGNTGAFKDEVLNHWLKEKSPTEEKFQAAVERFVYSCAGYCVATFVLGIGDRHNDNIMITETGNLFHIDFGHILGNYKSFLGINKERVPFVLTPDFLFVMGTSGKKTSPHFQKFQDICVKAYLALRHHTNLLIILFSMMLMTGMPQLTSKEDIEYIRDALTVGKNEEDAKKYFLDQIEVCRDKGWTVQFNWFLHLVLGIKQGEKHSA
Described as above. Conditions: PIK3Cγ_h. The essentials: as §1

Assay [3] has as its target T5, kinase enzymes (Homo sapiens, UniProt P42336).
T5 construct: purchased DiscoveRx Corporation, San Diego (contract service, KINOMEscan)
Described as above. Conditions: PIK3Cα_h. The essentials: as §1

For assay [4], the system named is Akt phosphorylated at Ser473 in PC-3 cells. Briefly: Cellular assay: phosphorylation of Akt at Ser473 in PC-3 cells (MSD ELISA). It counts as cell-based. Conditions: PC-3 cells, 60 min compound incubation, MSD ELISA, read-out: IC50 pAkt_S473. In a few lines:
(§2)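 Phospho-Akt in whole-cell lysates is quantified by electrochemiluminescent immunoassay using phospho-site capture and total-Akt detection antibodies.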
In general terms: In an ELISA, binding on a coated surface is turned into a signal by an enzyme label.

For assay [5], the system named is Akt phosphorylated at Thr308 in PC-3 cells. The assay is described as follows: Cellular assay: phosphorylation of Akt at Thr308 in PC-3 cells (MSD ELISA). It counts as cell-based. Conditions: PC-3 cells, 60 min compound incubation, MSD ELISA, read-out: IC50 pAkt_Thr308. In a few lines:
as §2

Like-named read-outs stand apart in the source and are kept apart here.

T1 sequence (P42338 whole entry): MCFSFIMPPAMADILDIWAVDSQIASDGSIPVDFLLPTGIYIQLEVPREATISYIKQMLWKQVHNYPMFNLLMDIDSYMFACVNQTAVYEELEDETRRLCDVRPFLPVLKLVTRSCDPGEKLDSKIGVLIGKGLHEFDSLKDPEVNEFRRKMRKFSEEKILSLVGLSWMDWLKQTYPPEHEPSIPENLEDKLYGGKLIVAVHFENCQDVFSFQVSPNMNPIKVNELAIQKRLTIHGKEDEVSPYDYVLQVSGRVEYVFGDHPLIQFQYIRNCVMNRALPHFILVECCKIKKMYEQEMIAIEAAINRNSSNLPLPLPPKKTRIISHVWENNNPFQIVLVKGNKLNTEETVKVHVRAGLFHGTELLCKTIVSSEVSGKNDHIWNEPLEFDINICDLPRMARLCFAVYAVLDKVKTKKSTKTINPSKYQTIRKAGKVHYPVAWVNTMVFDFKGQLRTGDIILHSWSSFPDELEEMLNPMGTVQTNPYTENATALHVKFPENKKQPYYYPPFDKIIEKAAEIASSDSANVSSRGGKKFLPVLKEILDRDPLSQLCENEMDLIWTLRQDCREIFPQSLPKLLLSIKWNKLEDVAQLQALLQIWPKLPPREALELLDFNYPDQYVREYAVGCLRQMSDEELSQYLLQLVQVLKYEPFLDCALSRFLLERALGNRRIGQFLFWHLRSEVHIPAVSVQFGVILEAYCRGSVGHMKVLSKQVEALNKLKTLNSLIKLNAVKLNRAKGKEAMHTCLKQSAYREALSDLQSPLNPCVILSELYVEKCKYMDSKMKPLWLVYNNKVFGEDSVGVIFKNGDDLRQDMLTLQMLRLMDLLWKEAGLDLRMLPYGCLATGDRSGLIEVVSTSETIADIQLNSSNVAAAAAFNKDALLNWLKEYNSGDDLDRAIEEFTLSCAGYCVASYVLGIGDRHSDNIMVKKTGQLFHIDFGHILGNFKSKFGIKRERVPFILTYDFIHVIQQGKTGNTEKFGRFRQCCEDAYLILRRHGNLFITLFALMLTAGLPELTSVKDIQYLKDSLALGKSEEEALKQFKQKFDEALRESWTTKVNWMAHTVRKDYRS
T5 sequence (P42336 whole entry): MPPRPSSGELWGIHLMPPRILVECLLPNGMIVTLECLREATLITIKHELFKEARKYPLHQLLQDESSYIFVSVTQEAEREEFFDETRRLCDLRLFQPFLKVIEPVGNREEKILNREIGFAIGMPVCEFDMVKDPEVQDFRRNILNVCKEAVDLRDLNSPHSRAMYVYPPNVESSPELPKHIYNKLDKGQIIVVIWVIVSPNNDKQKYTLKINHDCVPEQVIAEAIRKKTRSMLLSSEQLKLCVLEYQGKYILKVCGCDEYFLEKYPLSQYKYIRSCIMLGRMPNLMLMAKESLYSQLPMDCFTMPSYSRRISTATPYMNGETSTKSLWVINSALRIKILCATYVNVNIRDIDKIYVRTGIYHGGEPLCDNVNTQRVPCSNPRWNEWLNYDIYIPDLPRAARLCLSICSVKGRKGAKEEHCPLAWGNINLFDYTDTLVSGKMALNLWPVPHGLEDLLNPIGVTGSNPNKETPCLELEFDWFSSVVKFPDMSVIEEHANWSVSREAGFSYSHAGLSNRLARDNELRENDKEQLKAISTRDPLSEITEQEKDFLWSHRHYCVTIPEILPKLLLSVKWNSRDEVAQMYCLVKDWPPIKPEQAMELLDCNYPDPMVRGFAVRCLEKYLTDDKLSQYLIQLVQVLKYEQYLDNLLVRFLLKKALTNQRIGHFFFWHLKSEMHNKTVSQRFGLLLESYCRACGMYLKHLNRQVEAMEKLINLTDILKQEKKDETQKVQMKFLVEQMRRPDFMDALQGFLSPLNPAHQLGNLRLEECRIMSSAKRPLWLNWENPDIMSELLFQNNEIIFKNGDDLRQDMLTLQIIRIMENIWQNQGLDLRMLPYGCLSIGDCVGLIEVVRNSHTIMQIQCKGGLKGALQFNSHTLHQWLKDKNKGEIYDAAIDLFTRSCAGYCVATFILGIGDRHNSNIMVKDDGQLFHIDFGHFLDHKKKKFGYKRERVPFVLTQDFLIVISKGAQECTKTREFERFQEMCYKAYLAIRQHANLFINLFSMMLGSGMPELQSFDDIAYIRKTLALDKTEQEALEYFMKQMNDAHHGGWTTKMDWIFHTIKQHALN

On to `CC(Oc1cccc(F)c1)c1cc(C(=O)N(C)C)cc2ncc(N3CCOCC3)nc12` (single isomer, unassigned) [Compound 339b], for which the Kd was found to be 316 nM on PI3Kβ; 1950 nM on PI3Kδ; 6460 nM at kinase enzymes [1]; 2190 nM on kinase enzymes [2]; 759 nM at kinase enzymes [3]. The IC50 in assay [4] and in assay [5] was over 513 nM in each case.

As to `CNCCNC(=O)c1cc(C(C)Oc2ccc(F)c(F)c2)c2nc(N3CCOCC3)cnc2c1` (single isomer, unassigned) [Compound 344b], the Kd at PI3Kβ is 166 nM; on PI3Kδ, 3800 nM; on kinase enzymes [1], over 30200 nM; at kinase enzymes [2] it was 14100 nM; on kinase enzymes [3] it was 8130 nM. Also, the IC50 in assay [4] was over 513 nM; in assay [5], about 513 nM.

Turning to `CNCCOCCN(C)C(=O)c1cc(C(C)Nc2ccc(F)c(F)c2)c2nc(N3CCOCC3)cnc2c1` (single isomer, unassigned) [Compound 345b], the Kd on PI3Kβ is 724 nM; at PI3Kδ, 22900 nM; at kinase enzymes [1] it was over 30200 nM; on kinase enzymes [2], over 30200 nM; at kinase enzymes [3], over 30200 nM. Also, the IC50 in assay [4] and in assay [5] was over 513 nM in each case.

Turning to `CC(Nc1ccc(F)c(F)c1)c1cc(C(=O)N2CCN3CCC[C@@H]3C2)cc2ncc(N3CCOCC3)nc12` (single isomer, unassigned) [Compound 347b], the Kd at PI3Kβ is 2 nM; at PI3Kδ, 355 nM; at kinase enzymes [1], over 30200 nM; on kinase enzymes [2] it was 25700 nM; on kinase enzymes [3], 3890 nM. Besides, the IC50 in assay [4] was determined as 85 nM; in assay [5], 60 nM.

Turning to `CC(Nc1ccc(F)c(F)c1)c1cc(C(=O)NCC(C)(C)O)cc2ncc(N3CCOCC3)nc12` (single isomer, unassigned) [Compound 348b], the Kd is 1320 nM on PI3Kβ; 25700 nM on PI3Kδ; over 30200 nM on kinase enzymes [1]; over 30200 nM on kinase enzymes [2]; over 30200 nM at kinase enzymes [3]. Besides, the IC50 in assay [4] and in assay [5] was over 513 nM in each case.

Take `CC(Nc1ccc(F)c(F)c1)c1cc(C(=O)N(C)CCN(C)C)cc2ncc(N3CCOCC3)nc12` (single isomer, unassigned) [Compound 349b]: the Kd is 14 nM at PI3Kβ; 2750 nM at PI3Kδ; over 30200 nM at kinase enzymes [1]; 25700 nM at kinase enzymes [2]; 4680 nM on kinase enzymes [3]. Also, the values for the IC50 in assay [4] and in assay [5] were 479 nM and 302 nM, respectively.

Regarding `CC(C)NCCNC(=O)c1cc(C(C)Nc2ccc(F)c(F)c2)c2nc(N3CCOCC3)cnc2c1` (single isomer, unassigned) [Compound 364a], the Kd on PI3Kβ is 1 nM; on PI3Kδ, 204 nM; at kinase enzymes [1], over 30200 nM; on kinase enzymes [2], 6920 nM; on kinase enzymes [3] it was 2460 nM. Moreover, the IC50 in assay [4] was 35 nM; in assay [5] it was 26 nM.

As to `CC(C)NCCNC(=O)c1cc(C(C)Nc2ccc(F)c(F)c2)c2nc(N3CCOCC3)cnc2c1` (single isomer, unassigned) [Compound 364b], the dissociation constant (Kd) at PI3Kβ is 372 nM; on PI3Kδ it was 7760 nM; at kinase enzymes [1], over 30200 nM; at kinase enzymes [2], 8130 nM; on kinase enzymes [3] it was 7080 nM. Also, the IC50 in assay [4] and in assay [5] was over 513 nM throughout.

Consider `CN[C@H]1CCN(C(=O)c2cc(C(C)Nc3ccc(F)c(F)c3)c3nc(N4CCOCC4)cnc3c2)C1` (single isomer, unassigned) [Compound 365a], for which the dissociation constant Kd at PI3Kβ is 1 nM; at PI3Kδ it was 204 nM; at kinase enzymes [1] it was over 30200 nM; on kinase enzymes [2] it was 10200 nM; at kinase enzymes [3] it was 5250 nM. In addition, the IC50 in assay [4] (Homo sapiens, PC-3, 1 h) came to 52 nM; in assay [5] (Homo sapiens, PC-3, 1 h), 35 nM.

Turning to `Cc1c(F)cccc1CN(C)c1cc(C(=O)N2CCNC(C(F)(F)F)C2)cc2ncc(N3CCOCC3)nc12` (single isomer, unassigned) [Compound 367a], the Kd on PI3Kβ stood at 63 nM; on PI3Kδ it was 1150 nM; on kinase enzymes [1], 29500 nM; at kinase enzymes [2], 23400 nM; on kinase enzymes [3], 4070 nM. For the same compound, the IC50 in assay [4] (Homo sapiens, PC-3, 1 h) is over 513 nM; in assay [5] (Homo sapiens, PC-3, 1 h) it was over 513 nM.

On to `Cc1c(F)cccc1CN(C)c1cc(C(=O)N2CCNC(C(F)(F)F)C2)cc2ncc(N3CCOCC3)nc12` (single isomer, unassigned) [Compound 367b], for which the Kd at PI3Kβ was 35 nM; on PI3Kδ, 427 nM; on kinase enzymes [1], 28200 nM; on kinase enzymes [2] it was over 30200 nM; on kinase enzymes [3] it was 2460 nM. Also, the 50% inhibitory concentration (IC50) in assay [4] and in assay [5] was over 513 nM each time.

For the compound `CC(Oc1ccc(F)c(F)c1)c1cc(C(=O)N2CCN3CCC[C@H]3C2)cc2ncc(N3CCOCC3)nc12` (single isomer, unassigned) [Compound 369a], the Kd on PI3Kβ is 20 nM; on PI3Kδ it was 525 nM; at kinase enzymes [1] it was 25100 nM; on kinase enzymes [2], over 30200 nM; at kinase enzymes [3], 7240 nM. For the same compound, the IC50 in assay [4] (Homo sapiens, PC-3, 1 h) was about 363 nM; in assay [5], 251 nM.

For `CNCCNC(=O)c1cc(C(C)Oc2ccc(Cl)c(F)c2)c2nc(N3CCOCC3)cnc2c1` (single isomer, unassigned) [Compound 380b], the Kd on PI3Kβ is 5 nM; at PI3Kδ, 1200 nM; at kinase enzymes [1], 18600 nM; at kinase enzymes [2], 8910 nM; at kinase enzymes [3] it was 3800 nM. Besides, the IC50 in assay [4] (Homo sapiens, PC-3, 1 h) was over 513 nM; in assay [5] (Homo sapiens, PC-3, 1 h), over 513 nM.

Consider `CC(Nc1cc(F)c(F)c(F)c1)c1cc(C(=O)N2CCCN(C(C)C)CC2)cc2ncc(N3CCOCC3)nc12` (single isomer, unassigned) [Compound 388b], for which the dissociation constant (Kd) was 3 nM on PI3Kβ; 200 nM on PI3Kδ; over 30200 nM on kinase enzymes [1]; 2400 nM on kinase enzymes [2]; 2190 nM at kinase enzymes [3]. Besides, the IC50 in assay [4] (Homo sapiens, PC-3, 1 h) came out at 38 nM; in assay [5] (Homo sapiens, PC-3, 1 h), 19 nM.

`CN(C)C(=O)c1cc(N2CCC2c2ccc(F)cc2)c2nc(N3CCOCC3)cnc2c1` (single isomer, unassigned) [Compound 397b]: the Kd at PI3Kβ was 25 nM; at PI3Kδ, 871 nM; at kinase enzymes [1], over 30200 nM; at kinase enzymes [2] it was 12300 nM; at kinase enzymes [3] it was 1860 nM. Besides, the IC50 in assay [4] is about 513 nM; in assay [5], over 513 nM.

Turning to `CC(Oc1cc(F)c(F)c(F)c1)c1cc(C(=O)N(C)C2CCNC2)cc2ncc(N3CCOCC3)nc12` (single isomer, unassigned) [Compound 404a], the Kd at PI3Kβ was 1510 nM; on PI3Kδ it was over 30200 nM; on kinase enzymes [1], over 30200 nM; on kinase enzymes [2], over 30200 nM; on kinase enzymes [3], over 30200 nM. Also, the half-inhibitory concentration (IC50) in assay [4] (Homo sapiens, PC-3, 1 h) was over 513 nM; in assay [5] (Homo sapiens, PC-3, 1 h) it was over 513 nM.

Regarding `CC(Oc1cc(F)c(F)c(F)c1)c1cc(C(=O)N(C)C2CCNC2)cc2ncc(N3CCOCC3)nc12` (single isomer, unassigned) [Compound 404b], the Kd was 1 nM on PI3Kβ; 1070 nM at PI3Kδ; over 30200 nM on kinase enzymes [1]; 16600 nM on kinase enzymes [2]; 5250 nM at kinase enzymes [3]. The concentration for half-maximal inhibition (IC50) in assay [4] turned out to be 398 nM; in assay [5], 295 nM.

As a reminder, the Kd is the equilibrium constant for the complex coming apart. In general, IC50 refers to the concentration at which inhibition is half-maximal.

Values taken from patent US10526316B2, “Quinoxaline and pyridopyrazine derivatives as PI3Kβ inhibitors” (Janssen Pharmaceutica NV, priority 2015, dated 2020).
